Values joined by “and” are separate entries in the source; they are usually repeats but may differ in a detail not shown here. Equal entries are not always repeated. Inconclusive results and toxic doses are left out. Cut-off read from the data, not from the text of the source: active = T/C of 150% or more; inactive = T/C below 125%.
Tested on: L1210 leukemia ip in BDF1 mice, survival T/C
Test: NCI In Vivo Anticancer Drug Screen. Data for tumor model L1210 Leukemia (intraperitoneal) in B6D2F1 (BDF1) mice
Conditions: endpoint: mean survival time, higher = longer survival
Outline: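 Tumor was transplanted into mice, which were then dosed with test compound or vehicle alone. Survival was recorded for each group, and the treated figure was expressed relative to the control figure.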

[1] = dose: 100.0 mg/kg/injection, schedule: Q01DX001 (ip), vehicle: carboxymethylcellulose (CMC)
[2] = dose: 200.0 mg/kg/injection, schedule: Q01DX001 (ip), vehicle: carboxymethylcellulose (CMC)
[3] = dose: 400.0 mg/kg/injection, schedule: Q01DX001 (ip), vehicle: carboxymethylcellulose (CMC)
[4] = dose: 100.0 mg/kg/injection, schedule: Q04DX003 (ip), vehicle: saline with Tween-80
[5] = dose: 200.0 mg/kg/injection, schedule: Q04DX003 (ip), vehicle: saline with Tween-80
[6] = dose: 100.0 mg/kg/injection, schedule: Q01DX009 (ip), vehicle: saline with Tween-80
[7] = dose: 200.0 mg/kg/injection, schedule: Q01DX009 (ip), vehicle: saline with Tween-80
[8] = dose: 400.0 mg/kg/injection, schedule: Q01DX009 (ip), vehicle: saline with Tween-80

Measured: T/C

CC(C)CCCC(C)C1CCC2C3CCC4CC(=O)CCC4(C)C3CCC12C (configuration not stated)
inactive: dose: 12.5 mg/kg/injection, schedule: Q01DX009 (ip), vehicle: Klucel (hydroxypropylcellulose) (HPC) 104 % of control | dose: 25.0 mg/kg/injection, schedule: Q01DX009 (ip), vehicle: Klucel (hydroxypropylcellulose) (HPC) 107 % of control and 90 % of control | dose: 100.0 mg/kg/injection, schedule: Q01DX009 (ip), vehicle: Klucel (hydroxypropylcellulose) (HPC) 90 % of control | dose: 100.0 mg/kg/injection, schedule: Q04DX002 (ip), vehicle: Klucel (hydroxypropylcellulose) (HPC) 87 % of control | dose: 200.0 mg/kg/injection, schedule: Q04DX002 (ip), vehicle: Klucel (hydroxypropylcellulose) (HPC) 93 % of control | dose: 400.0 mg/kg/injection, schedule: Q04DX002 (ip), vehicle: Klucel (hydroxypropylcellulose) (HPC) 107 % of control

COC(=O)c1cc(N2CC2)nc(Cl)n1
inactive: dose: 25.0 mg/kg/injection, schedule: Q01DX Z (ip), vehicle: methylcellulose (MC) 101 % of control | dose: 50.0 mg/kg/injection, schedule: Q01DX Z (ip), vehicle: methylcellulose (MC) 93 % of control

C=CCOC(=O)OCc1ccccc1
inactive: dose: 222.0 mg/kg/injection, schedule: Q01DX Z (ip), vehicle: methylcellulose (MC) 92 % of control | dose: 333.0 mg/kg/injection, schedule: Q01DX Z (ip), vehicle: methylcellulose (MC) 89 % of control

Cc1ccc(S(=O)(=O)OCCCCl)cc1
inactive: [1] 112 % of control | [2] 106 % of control | [3] 101 % of control

NCC(=O)CCS(=O)(=O)c1ccc(Cl)cc1
inactive: dose: 12.5 mg/kg/injection, schedule: Q04DX003 (ip), vehicle: saline 96 % of control | dose: 25.0 mg/kg/injection, schedule: Q04DX003 (ip), vehicle: saline 91 % of control | dose: 50.0 mg/kg/injection, schedule: Q04DX003 (ip), vehicle: saline 93 % of control

CCOc1ccc(Cl)cc1C1N(Cc2ccccc2OC)CCCN1Cc1ccccc1OC
inactive: [1] 87 % of control | [2] 93 % of control | [3] 91 % of control

Cc1ccc(S(=O)(=O)NC(CCl)=NCC23CC4CC(CC(C4)C2)C3)cc1
inactive: dose: 31.3 mg/kg/injection, schedule: Q04DX002 (ip), vehicle: Klucel (hydroxypropylcellulose) (HPC) 113 % of control | dose: 62.5 mg/kg/injection, schedule: Q04DX002 (ip), vehicle: Klucel (hydroxypropylcellulose) (HPC) 94 % of control | dose: 125.0 mg/kg/injection, schedule: Q04DX002 (ip), vehicle: Klucel (hydroxypropylcellulose) (HPC) 94 % of control

COc1ccc(C2C(=O)NN=C2C)cc1 (configuration not stated)
inactive: [1] 96 % of control | [2] 96 % of control | [3] 102 % of control

Cc1ccc(S(=O)(=O)N(C)c2ccc(C(=O)O)c3ccccc23)cc1
inactive: [4] 105 % of control | [5] 97 % of control | dose: 400.0 mg/kg/injection, schedule: Q04DX003 (ip), vehicle: saline with Tween-80 100 % of control

CCC(C)OC(=O)Nc1cccc(O)c1 (configuration not stated)
inactive: [6] 91 % of control | [7] 89 % of control | [8] 90 % of control

CS(=O)(=O)CC(=O)c1ccccc1
inactive: dose: 37.5 mg/kg/injection, schedule: Q01DX009 (ip), vehicle: saline with Tween-80 87 % of control | dose: 75.0 mg/kg/injection, schedule: Q01DX009 (ip), vehicle: saline with Tween-80 90 % of control | [4] 95 % of control | dose: 150.0 mg/kg/injection, schedule: Q01DX009 (ip), vehicle: saline with Tween-80 87 % of control | [5] 96 % of control

COc1ccc(OC)c(NC(=O)Nc2cc(OC)ccc2OC)c1
inactive: [6] 106 % of control | [7] 97 % of control | [8] 94 % of control

S=C(SC(=S)N(C1CCCCC1)C1CCCCC1)N(C1CCCCC1)C1CCCCC1
inactive: dose: 25.0 mg/kg/injection, schedule: Q01DX009 (ip), vehicle: saline with Tween-80 92 % of control | dose: 50.0 mg/kg/injection, schedule: Q01DX009 (ip), vehicle: saline with Tween-80 90 % of control | [6] 86 % of control and 89 % of control

— PubChem BioAssay AID248 (DTP/NCI, 2004)
